From ChEMBL document CHEMBL5046231, “Modulation of Naturally Occurring Linear Dipeptide Chirality to Reduce the Affinity for Oligopeptide Transporter 1 and Increase Intestinal Stability for an Enhanced Colon-Targeting Effect in the Treatment of Inflammatory Bowel Disease: An Application of trans-4-l-Hydroxyprolyl-l-serine” (J Med Chem, 2022)
Calls of active or inactive are those of the source. The rule behind the calls is not given here.

Tests used:
[1] = Metabolic stability in DSS-induced C57BL/6 mouse colon assessed as half life measured up to 12 hrs by HPLC analysis; type: ADME, tissue-based
[2] = Stability in simulated gastric fluid at pH 1.2 assessed as half life measured up to 12 hrs by HPLC analysis; type: ADME
[3] = Chemical stability in phosphate buffer at pH 6.8 assessed as half life measured up to 12 hrs by HPLC analysis; type: physicochemical
[4] = biological target: T1, Solute carrier family 15 member 1 (Homo sapiens, UniProt P46059); test: Substrate activity at PEPT1 in human Caco-2 cells assessed as fold reduction in drug uptake in presence of Gly-Sar by UPLC-MS/MS analysis relative to its enantiomers; type: ADME, cell-based
T1 sequence (P46059 whole entry): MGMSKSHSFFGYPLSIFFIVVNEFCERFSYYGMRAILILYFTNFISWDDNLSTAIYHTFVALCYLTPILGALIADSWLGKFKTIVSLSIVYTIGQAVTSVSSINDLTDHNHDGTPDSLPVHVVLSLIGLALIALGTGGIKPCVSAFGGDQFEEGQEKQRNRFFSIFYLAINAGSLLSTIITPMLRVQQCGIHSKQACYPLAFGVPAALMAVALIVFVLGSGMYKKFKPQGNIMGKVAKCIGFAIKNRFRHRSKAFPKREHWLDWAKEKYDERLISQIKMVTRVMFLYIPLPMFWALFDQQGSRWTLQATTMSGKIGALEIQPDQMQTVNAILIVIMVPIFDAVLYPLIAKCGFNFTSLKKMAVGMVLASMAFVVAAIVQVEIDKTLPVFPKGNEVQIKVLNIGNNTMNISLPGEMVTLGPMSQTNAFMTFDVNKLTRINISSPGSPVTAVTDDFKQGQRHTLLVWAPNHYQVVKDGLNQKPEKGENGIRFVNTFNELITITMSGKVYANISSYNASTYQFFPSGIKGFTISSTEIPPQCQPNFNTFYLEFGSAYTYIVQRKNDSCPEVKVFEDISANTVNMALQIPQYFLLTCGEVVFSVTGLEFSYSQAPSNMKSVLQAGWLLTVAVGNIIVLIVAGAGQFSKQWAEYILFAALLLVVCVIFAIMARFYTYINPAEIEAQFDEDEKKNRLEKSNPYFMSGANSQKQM

[5] = AUC (0 to 6 hrs) in DSS-induced colitis C57BL/6 mouse model at 25 mg/kg, po measured up to 6 hrs by UPLC-MS/MS analysis; type: ADME, organism-based; design: route oral, dose 25 mg/kg, time <=6; conditions: in vivo
[6] = Metabolic stability in healthy C57BL/6 mouse jejunum assessed as half life measured up to 12 hrs by HPLC analysis; type: ADME, tissue-based
[7] = Cmax in DSS-induced colitis C57BL/6 mouse model at 25 mg/kg, po measured up to 6 hrs by UPLC-MS/MS analysis; type: ADME, organism-based; design: route oral, dose 25 mg/kg, time <=6; conditions: in vivo
[8] = Stability in human Caco-2 cells homogenate assessed as half life measured up to 12 hrs by HPLC analysis; type: ADME, cell-based; conditions: Caco-2 cell homogenate
[9] = Metabolic stability in healthy C57BL/6 mouse colon assessed as half life measured up to 12 hrs by HPLC analysis; type: ADME, tissue-based
[10] = Stability in simulated intestinal fluid at pH 6.8 assessed as half life measured up to 12 hrs by HPLC analysis; type: ADME
Mus musculus [11] = test: Anti-colitis activity against DSS-induced colitis in C57BL/6 mouse model assessed as increase in colon length at 25 mg/kg, po administered via gavage twice daily for 10 days; type: functional, organism-based; conditions: time 10.0 day
[12] = Chemical stability in phosphate buffer at pH 7.2 assessed as half life measured up to 12 hrs by HPLC analysis; type: physicochemical
[13] = Metabolic stability in DSS-induced C57BL/6 inflammatory mouse model colonic flora homogenate assessed as half life measured up to 12 hrs by HPLC analysis; type: ADME; conditions: C57BL/6, mouse
[14] = Tmax in DSS-induced colitis C57BL/6 mouse model at 25 mg/kg, po measured up to 6 hrs by UPLC-MS/MS analysis; type: ADME, organism-based; conditions: in vivo
[15] = biological target: T1, Solute carrier family 15 member 1; test: Substrate activity at PEPT1 in human Caco-2 cells assessed as inhibition of Gly-Sar substrate uptake by UPLC-MS/MS analysis; type: cell-based; conditions: for inhibition (INH): human, caco-2
[16] = Metabolic stability in healthy C57BL/6 mouse liver assessed as half life measured up to 12 hrs by HPLC analysis; type: ADME, tissue-based
Mus musculus [17] = test: Anti-colitis activity against DSS-induced colitis in C57BL/6 mouse model assessed as assessed as recovery of body weight at 25 mg/kg, po administered via gavage twice daily for 10 days; type: functional, organism-based; conditions: time 10.0 day
[18] = Chemical stability in 0.1 M HCl at pH 1.2 assessed as half life measured up to 12 hrs by HPLC analysis; type: physicochemical
[19] = biological target: T1, Solute carrier family 15 member 1; test: Substrate activity at PEPT1 in human Caco-2 cells assessed as fold increase in drug uptake by UPLC-MS/MS analysis relative to its enantiomers; type: ADME, cell-based
[20] = Metabolic stability in DSS-induced C57BL/6 mouse jejunum assessed as half life measured up to 12 hrs by HPLC analysis; type: ADME, tissue-based
[21] = Metabolic stability in healthy C57BL/6 mouse plasma assessed as half life measured up to 12 hrs by HPLC analysis; type: ADME, cell-free
[22] = Chemical stability in acetate buffer at pH 4.5 assessed as half life measured up to 12 hrs by HPLC analysis; type: physicochemical
[23] = Metabolic stability in healthy C57BL/6 mouse colonic flora homogenate assessed as half life measured up to 12 hrs by HPLC analysis; type: ADME
Jejunum = test: Effective permeability in Sprague-Dawley rat jejunum assessed as fold increase in permeability at 5 mM measured up to 60 mins by HPLC analysis relative to its enantiomers; type: ADME, tissue-based; conditions: 1 h, 5000 µM
[24] = Apparent permeability across apical to basolateral side in human Caco-2 cells assessed as fold increase in permeability at 0.5 mM measured up to 60 mins by UPLC-MS/MS analysis relative to its enantiomers; type: ADME, cell-based; conditions: caco-2, 1 h, 500 µM
[25] = biological target: T2, Solute carrier family 15 member 1 (Rattus norvegicus, UniProt P51574); test: Substrate activity in PEPT1 in Sprague-Dawley rat jejunum assessed as fold increase in effective permeability at 5 mM measured up to 60 mins in presence of Gly-Sar by HPLC analysis relative to its enantiomers; type: ADME, tissue-based; conditions: 1 h, 5000 µM
T2 sequence (P51574 whole entry): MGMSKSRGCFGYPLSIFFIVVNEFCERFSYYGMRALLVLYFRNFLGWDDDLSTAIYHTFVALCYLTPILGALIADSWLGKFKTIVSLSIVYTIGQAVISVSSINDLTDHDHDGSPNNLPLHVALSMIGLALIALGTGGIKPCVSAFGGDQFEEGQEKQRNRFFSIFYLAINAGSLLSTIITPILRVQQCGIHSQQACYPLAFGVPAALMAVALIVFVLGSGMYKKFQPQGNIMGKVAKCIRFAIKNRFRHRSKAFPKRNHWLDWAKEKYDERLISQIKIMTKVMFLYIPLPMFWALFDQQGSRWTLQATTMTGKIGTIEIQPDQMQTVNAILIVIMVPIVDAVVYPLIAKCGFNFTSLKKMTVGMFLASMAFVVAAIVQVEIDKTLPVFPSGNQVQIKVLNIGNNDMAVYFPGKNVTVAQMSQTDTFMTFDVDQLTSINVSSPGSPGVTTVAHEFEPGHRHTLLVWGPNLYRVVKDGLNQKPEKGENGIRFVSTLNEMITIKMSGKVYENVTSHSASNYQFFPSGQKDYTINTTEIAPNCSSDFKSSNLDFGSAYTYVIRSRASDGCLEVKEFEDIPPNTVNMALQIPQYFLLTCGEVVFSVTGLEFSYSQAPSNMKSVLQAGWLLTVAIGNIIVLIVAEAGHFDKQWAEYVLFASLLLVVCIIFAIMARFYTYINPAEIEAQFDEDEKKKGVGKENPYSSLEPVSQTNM

Mus musculus [26] = test: Anti-colitis activity against DSS-induced colitis in C57BL/6 mouse model assessed as fold decrease in disease activity index at 25 mg/kg, po administered via gavage twice daily for 10 days relative to control; type: functional; conditions: time 10 day

SMILES | half-life [1] [h] | half-life [2] [h] | half-life [3] [h] | AUC [5] [microM/L.hr] | half-life [6] [h] | Cmax [7] [µM] | half-life [8] [h] | half-life [9] [h] | half-life [10] [h] | Activity (Mus musculus [11]) | half-life [12] [h] | half-life [13] [h] | Tmax [14] [h] | half-life [16] [h] | Activity (Mus musculus [17]) | half-life [18] [h] | half-life [20] [h] | half-life [21] [h] | half-life [22] [h] | half-life [23] [h] | also measured
O=C(O)[C@H](CO)NC(=O)[C@@H]1C[C@H](O)CN1 | > 12 | > 12 | > 12 | 1.62 | 0.39 | 1.05 | > 12 | > 12 | > 12 | inactive | > 12 | 1.15 | 2 | 0.51 | inactive | > 12 | 0.35 | > 12 | > 12 | 1.22 | fold change (FC) [4]: 3.4; IC50 [15]: 9.8 mM; fold change (FC) [19]: 3.3; fold change (FC) (Jejunum): 7.3; fold change (FC) [24]: 6.3; fold change (FC) [25]: 4
O=C(N[C@H](CO)C(=O)O)[C@@H]1C[C@@H](O)CN1 | > 12 | > 12 | > 12 | 1.67 | 0.33 | 0.64 | > 12 | > 12 | > 12 | Active | > 12 | 0.99 | 2 | 0.32 | Active | > 12 | 0.39 | > 12 | > 12 | 0.91 | fold change (FC) [4]: 3.4; fold change (FC) (Mus musculus [26]): 1.5; IC50 [15]: 10.2 mM; fold change (FC) [19]: 3.3; fold change (FC) (Jejunum): 7.3; fold change (FC) [24]: 6.3; fold change (FC) [25]: 4.6
O=C(N[C@H](CO)C(=O)O)[C@@H]1C[C@H](O)CN1 | > 12 | > 12 | > 12 | 49.92 | > 12 | 22.1 | > 12 | > 12 | > 12 | inactive | > 12 | > 12 | 4 | > 12 | inactive | > 12 | > 12 | > 12 | > 12 | > 12 | inhibition (INH) [15]: Not Active
O=C(O)[C@H](CO)NC(=O)[C@@H]1C[C@@H](O)CN1 | > 12 | > 12 | > 12 | 1.34 | 0.35 | 0.52 | > 12 | > 12 | > 12 | Active | > 12 | 0.88 | 2 | 0.27 | Active | > 12 | 0.29 | > 12 | > 12 | 0.86 | fold change (FC) [4]: 3.4; fold change (FC) (Mus musculus [26]): 1.5; IC50 [15]: 5.18 mM; fold change (FC) [19]: 3.3; fold change (FC) (Jejunum): 7.3; fold change (FC) [24]: 6.3; fold change (FC) [25]: 7.8
O=C(O)[C@H](CO)NC(=O)[C@H]1C[C@@H](O)CN1 | > 12 | > 12 | > 12 | 44.55 | > 12 | 22.7 | > 12 | > 12 | > 12 | inactive | > 12 | > 12 | 4 | > 12 | inactive | > 12 | > 12 | > 12 | > 12 | > 12 | inhibition (INH) [15]: Not Active
O=C(O)[C@@H](CO)NC(=O)[C@H]1C[C@H](O)CN1 | > 12 | > 12 | > 12 | 50.73 | > 12 | 22.9 | > 12 | > 12 | > 12 | Active | > 12 | > 12 | 4 | > 12 | Active | > 12 | > 12 | > 12 | > 12 | > 12 | fold change (FC) (Mus musculus [26]): 1.5; inhibition (INH) [15]: Not Active; fold change (FC) [19]: 3.3
O=C(O)[C@H](CO)NC(=O)[C@H]1C[C@H](O)CN1 | > 12 | > 12 | > 12 | 8.55 | > 12 | 4.01 | > 12 | > 12 | > 12 | inactive | > 12 | > 12 | 2 | > 12 | inactive | > 12 | > 12 | > 12 | > 12 | > 12 | fold change (FC) [4]: 3.4; IC50 [15]: 9.6 mM; fold change (FC) [19]: 3.3; fold change (FC) (Jejunum): 7.3; fold change (FC) [24]: 6.3; fold change (FC) [25]: 6.2
